Several values for one entry are separate records, joined by “and”; a condition that tells them apart may be missing. Equal entries are not always repeated. Toxic doses and inconclusive results are not listed.
Test system: L1210 leukemia ip in BDF1 mice, survival T/C
Test: NCI In Vivo Anticancer Drug Screen. Data for tumor model L1210 Leukemia (intraperitoneal) in B6D2F1 (BDF1) mice
Settings: higher = longer survival
How it was run: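 Transplanted-tumor mice were given test agent; controls received vehicle only. Survival readings from the two groups were divided (treated over control).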

For `COc1cc([C@@H]2c3cc4c(cc3[C@@H](OC3OC5CO[C@@H](c6cccs6)OC5C(O)C3O)[C@H]3COC(=O)[C@H]23)OCO4)cc(OC)c1O` (stereo partly specified), the T/C (endpoint: mean survival time, dose: 0.5 mg/kg/injection, schedule: Q03HX024 (ip), vehicle: other) was 109 % of control, the T/C (endpoint: mean survival time, dose: 1.0 mg/kg/injection, schedule: Q01DX009 (ip), vehicle: other) was 111 % of control and the T/C (endpoint: mean survival time, dose: 1.0 mg/kg/injection, schedule: Q03HX008 (ip), vehicle: other) was 122 % of control. For the same compound, the T/C (endpoint: mean survival time, dose: 1.0 mg/kg/injection, schedule: Q03HX016 (ip), vehicle: other) was 111 % of control, the T/C (endpoint: mean survival time, dose: 1.0 mg/kg/injection, schedule: Q03HX024 (ip), vehicle: other) was 118 % of control and the T/C (endpoint: mean survival time, dose: 2.0 mg/kg/injection, schedule: Q01DX009 (oral), vehicle: other) was 104 % of control. The T/C (endpoint: mean survival time, dose: 2.0 mg/kg/injection, schedule: Q03HX008 (oral), vehicle: other) was 90 % of control, the T/C (endpoint: mean survival time, dose: 2.0 mg/kg/injection, schedule: Q04DX003 (ip), vehicle: water) was 194 % of control and the T/C (endpoint: mean survival time, dose: 2.0 mg/kg/injection, schedule: Q08DX002 (ip), vehicle: water) was 156 % of control. The T/C (endpoint: mean survival time, dose: 4.0 mg/kg/injection, schedule: Q01DX001 (ip), vehicle: water) was 157 % of control, the T/C (endpoint: mean survival time, dose: 4.0 mg/kg/injection, schedule: Q01DX009 (oral), vehicle: other) was 101 % of control and the T/C (endpoint: mean survival time, dose: 4.0 mg/kg/injection, schedule: Q03HX008 (oral), vehicle: other) was 98 % of control. The T/C (endpoint: mean survival time, dose: 4.0 mg/kg/injection, schedule: Q04DX003 (ip), vehicle: other) was 110 % of control, the T/C (endpoint: mean survival time, dose: 4.0 mg/kg/injection, schedule: Q04DX003 (ip), vehicle: water) was 241 % of control and the T/C (endpoint: mean survival time, dose: 4.0 mg/kg/injection, schedule: Q08DX002 (ip), vehicle: water) was 172 % of control. For the same compound, the T/C (endpoint: mean survival time, dose: 8.0 mg/kg/injection, schedule: Q01DX001 (ip), vehicle: water) was 162 % of control, the T/C (endpoint: mean survival time, dose: 8.0 mg/kg/injection, schedule: Q01DX009 (oral), vehicle: other) was 105 % of control and the T/C (endpoint: mean survival time, dose: 8.0 mg/kg/injection, schedule: Q03HX008 (oral), vehicle: other) was 100 % of control. For the same compound, the T/C (endpoint: mean survival time, dose: 8.0 mg/kg/injection, schedule: Q03HX016 (ip), vehicle: other) was 186 % of control, the T/C (endpoint: mean survival time, dose: 8.0 mg/kg/injection, schedule: Q03HX016 (oral), vehicle: other) was 95 % of control and the T/C (endpoint: mean survival time, dose: 8.0 mg/kg/injection, schedule: Q03HX024 (oral), vehicle: other) was 98 % of control. For the same compound, the T/C (endpoint: mean survival time, dose: 8.0 mg/kg/injection, schedule: Q04DX003 (ip), vehicle: water) was 426 % of control, the T/C (endpoint: mean survival time, dose: 8.0 mg/kg/injection, schedule: Q04DX003 (oral), vehicle: other) was 97 % of control and the T/C (endpoint: mean survival time, dose: 8.0 mg/kg/injection, schedule: Q08DX002 (ip), vehicle: other) was 109 % of control. For the same compound, the T/C (endpoint: mean survival time, dose: 8.0 mg/kg/injection, schedule: Q08DX002 (ip), vehicle: water) was 300 % of control, the T/C (endpoint: mean survival time, dose: 16.0 mg/kg/injection, schedule: Q01DX001 (ip), vehicle: water) was 439 % of control and the T/C (endpoint: mean survival time, dose: 16.0 mg/kg/injection, schedule: Q01DX001 (oral), vehicle: other) was 111 % of control. For the same compound, the T/C (endpoint: mean survival time, dose: 16.0 mg/kg/injection, schedule: Q01DX009 (oral), vehicle: other) was 103 % of control, the T/C (endpoint: mean survival time, dose: 16.0 mg/kg/injection, schedule: Q03HX008 (oral), vehicle: other) was 95 % of control and the T/C (endpoint: mean survival time, dose: 16.0 mg/kg/injection, schedule: Q03HX016 (oral), vehicle: other) was 94 % of control and 95 % of control. For the same compound, the T/C (endpoint: mean survival time, dose: 16.0 mg/kg/injection, schedule: Q03HX024 (oral), vehicle: other) was 93 % of control, the T/C (endpoint: mean survival time, dose: 16.0 mg/kg/injection, schedule: Q04DX003 (ip), vehicle: water) was 172 % of control and the T/C (endpoint: mean survival time, dose: 16.0 mg/kg/injection, schedule: Q04DX003 (oral), vehicle: other) was 106 % of control. For the same compound, the T/C (endpoint: mean survival time, dose: 16.0 mg/kg/injection, schedule: Q08DX002 (ip), vehicle: other) was 122 % of control, the T/C (endpoint: mean survival time, dose: 16.0 mg/kg/injection, schedule: Q08DX002 (ip), vehicle: water) was 423 % of control and the T/C (endpoint: mean survival time, dose: 16.0 mg/kg/injection, schedule: Q08DX002 (oral), vehicle: other) was 102 % of control. The T/C (endpoint: mean survival time, dose: 32.0 mg/kg/injection, schedule: Q01DX001 (ip), vehicle: water) was 242 % of control, the T/C (endpoint: mean survival time, dose: 32.0 mg/kg/injection, schedule: Q01DX001 (oral), vehicle: other) was 161 % of control and the T/C (endpoint: mean survival time, dose: 32.0 mg/kg/injection, schedule: Q03HX016 (oral), vehicle: other) was 98 % of control. For the same compound, the T/C (endpoint: mean survival time, dose: 32.0 mg/kg/injection, schedule: Q03HX024 (oral), vehicle: other) was 94 % of control, the T/C (endpoint: mean survival time, dose: 32.0 mg/kg/injection, schedule: Q04DX003 (ip), vehicle: water) was 103 % of control and the T/C (endpoint: mean survival time, dose: 32.0 mg/kg/injection, schedule: Q04DX003 (oral), vehicle: other) was 100 % of control. For the same compound, the T/C (endpoint: mean survival time, dose: 32.0 mg/kg/injection, schedule: Q08DX002 (ip), vehicle: water) was 163 % of control, the T/C (endpoint: mean survival time, dose: 32.0 mg/kg/injection, schedule: Q08DX002 (oral), vehicle: other) was 100 % of control and the T/C (endpoint: mean survival time, dose: 64.0 mg/kg/injection, schedule: Q01DX001 (ip), vehicle: other) was 188 % of control. For the same compound, the T/C (endpoint: mean survival time, dose: 64.0 mg/kg/injection, schedule: Q01DX001 (oral), vehicle: other) was 98 % of control, the T/C (endpoint: mean survival time, dose: 64.0 mg/kg/injection, schedule: Q03HX024 (oral), vehicle: other) was 92 % of control and the T/C (endpoint: mean survival time, dose: 64.0 mg/kg/injection, schedule: Q04DX003 (oral), vehicle: other) was 97 % of control. The T/C (endpoint: mean survival time, dose: 64.0 mg/kg/injection, schedule: Q08DX002 (ip), vehicle: other) was 190 % of control, the T/C (endpoint: mean survival time, dose: 64.0 mg/kg/injection, schedule: Q08DX002 (oral), vehicle: other) was 96 % of control and the T/C (endpoint: mean survival time, dose: 128.0 mg/kg/injection, schedule: Q01DX001 (oral), vehicle: other) was 101 % of control. For the same compound, the T/C (endpoint: mean survival time, dose: 128.0 mg/kg/injection, schedule: Q03HX024 (oral), vehicle: other) was 94 % of control, the T/C (endpoint: mean survival time, dose: 128.0 mg/kg/injection, schedule: Q04DX003 (oral), vehicle: other) was 96 % of control and the T/C (endpoint: mean survival time, dose: 128.0 mg/kg/injection, schedule: Q08DX002 (oral), vehicle: other) was 98 % of control. For the same compound, the T/C (endpoint: mean survival time, dose: 600.0 mg/kg/injection, schedule: Q01DX009 (ip), vehicle: steriod suspending solution) was 224 % of control, the T/C (endpoint: mean survival time, dose: 800.0 mg/kg/injection, schedule: Q01DX009 (ip), vehicle: steriod suspending solution) was 246 % of control and the T/C (endpoint: mean survival time, dose: 1000.0 mg/kg/injection, schedule: Q01DX009 (ip), vehicle: steriod suspending solution) was 169 % of control. For the same compound, the T/C (endpoint: median survival time, dose: 1.0 mg/kg/injection, schedule: Q01DX009 (ip), vehicle: saline) was 194 % of control, the T/C (endpoint: median survival time, dose: 2.0 mg/kg/injection, schedule: Q01DX009 (ip), vehicle: saline) was 116 % of control and the T/C (endpoint: median survival time, dose: 4.0 mg/kg/injection, schedule: Q01DX009 (ip), vehicle: saline) was 88 % of control.

With `CCN(C=O)c1ccc(NC=O)cc1` the T/C (endpoint: mean survival time, dose: 50.0 mg/kg/injection, schedule: Q01DX001 (ip), vehicle: saline with Tween-80) was 104 % of control, the T/C (endpoint: mean survival time, dose: 100.0 mg/kg/injection, schedule: Q01DX001 (ip), vehicle: saline with Tween-80) was 94 % of control and 100 % of control and the T/C (endpoint: mean survival time, dose: 100.0 mg/kg/injection, schedule: Q04DX002 (ip), vehicle: saline with Tween-80) was 103 % of control. The T/C (endpoint: mean survival time, dose: 100.0 mg/kg/injection, schedule: Q04DX003 (ip), vehicle: saline with Tween-80) was 97 % of control, the T/C (endpoint: mean survival time, dose: 200.0 mg/kg/injection, schedule: Q01DX001 (ip), vehicle: saline with Tween-80) was 94 % of control and 91 % of control and the T/C (endpoint: mean survival time, dose: 200.0 mg/kg/injection, schedule: Q04DX002 (ip), vehicle: saline with Tween-80) was 97 % of control. The T/C (endpoint: mean survival time, dose: 200.0 mg/kg/injection, schedule: Q04DX003 (ip), vehicle: saline with Tween-80) was 95 % of control and 91 % of control, the T/C (endpoint: mean survival time, dose: 400.0 mg/kg/injection, schedule: Q01DX001 (ip), vehicle: saline with Tween-80) was 94 % of control and the T/C (endpoint: mean survival time, dose: 400.0 mg/kg/injection, schedule: Q04DX002 (ip), vehicle: saline with Tween-80) was 101 % of control. The T/C (endpoint: mean survival time, dose: 400.0 mg/kg/injection, schedule: Q04DX003 (ip), vehicle: saline with Tween-80) was 103 % of control and 108 % of control.

`COc1ccc2ncccc2c1` was tested, and the T/C (endpoint: mean survival time, dose: 100.0 mg/kg/injection, schedule: Q04DX002 (ip), vehicle: saline) was 111 % of control, the T/C (endpoint: mean survival time, dose: 200.0 mg/kg/injection, schedule: Q04DX002 (ip), vehicle: saline) was 101 % of control and the T/C (endpoint: mean survival time, dose: 400.0 mg/kg/injection, schedule: Q04DX002 (ip), vehicle: saline) was 104 % of control.

For `[Cu+2].[NH-]C1C(Cl)CCC2C(Cl)CC[N-]C12` (stereo unspecified), the T/C (endpoint: mean survival time, dose: 6.0 mg/kg/injection, schedule: Q04DX003 (ip), vehicle: Klucel (hydroxypropylcellulose) (HPC)) was 91 % of control, the T/C (endpoint: mean survival time, dose: 12.0 mg/kg/injection, schedule: Q01DX001 (ip), vehicle: other) was 108 % of control and the T/C (endpoint: mean survival time, dose: 12.0 mg/kg/injection, schedule: Q04DX003 (ip), vehicle: Klucel (hydroxypropylcellulose) (HPC)) was 102 % of control. The T/C (endpoint: mean survival time, dose: 25.0 mg/kg/injection, schedule: Q01DX001 (ip), vehicle: other) was 108 % of control.

With `CC(C)(O)c1cnnn1CCC[CH2][Pb]([c]1ccccc1)([c]1ccccc1)[c]1ccccc1` the T/C (endpoint: mean survival time, dose: 50.0 mg/kg/injection, schedule: Q01DX001 (ip), vehicle: carboxymethylcellulose (CMC)) was 102 % of control, the T/C (endpoint: mean survival time, dose: 100.0 mg/kg/injection, schedule: Q01DX001 (ip), vehicle: carboxymethylcellulose (CMC)) was 105 % of control and the T/C (endpoint: mean survival time, dose: 200.0 mg/kg/injection, schedule: Q01DX001 (ip), vehicle: carboxymethylcellulose (CMC)) was 102 % of control. For the same compound, the T/C (endpoint: mean survival time, dose: 400.0 mg/kg/injection, schedule: Q01DX001 (ip), vehicle: carboxymethylcellulose (CMC)) was 96 % of control.

Source: PubChem BioAssay AID248 (DTP/NCI, 2004)
